pIC50: −log10 of the molar value. Converted amounts (≈) assume the structure as drawn.
Experiments:
[1] = Anti-oxidant activity
[2] = Average solubility; type: physicochemical
[3] = Metabolic stability in human liver microsomes; type: in vitro ADME; conditions: read-out: Half life, t1/2 HLM
[4] = Metabolic stability in human S9 fraction; type: in vitro ADME; conditions: read-out: Half life, t1/2 S9
[5] = Chemical stability (H2O, pH 7.4); type: physicochemical
[6] = system: MGAT3; assay: MGAT3 transcription ratio, AD patient / control PBMCs (qPCR); type: cell-based, human; set-up: key: Dash (−) indicates minimal effect; (+) indicates a ratio of 1.0-1.5; (++) indicates a ratio of 1.5-2.0; (+++ to ++++) indicates a ratio of 2.0 and above; (+++ to ++++) indicates a ratio of 2.0 and above; conditions: Aβ stimulation
Experimental: (§1) qPCR reactions of cultured monocyte cDNAs. One μL total cellular cDNA per reaction is used in triplicate reactions for each test gene, and for each culture treatment. SYBR-Green reactions were run on a Continuous Fluorescence real-time thermocycler and analyzed. Cycle threshold (Ct) values are recorded for each replicate reaction, and are then averaged and normalized against mean Ct values from one or more control genes. Fold-expression differences relative to untreated cells are determined using the 2^−ΔΔCt method as previously described. Data from the curcumin concentration range are plotted in order to determine EC50 values (concentrations producing one-half maximal stimulant activity), which are used for comparisons of potency between different compounds. Data are also evaluated for each gene with regard to sensitivity, maximally effective concentration of curcuminoid, response to Aβ, and overall magnitude of fold-expression changes.
(§2) MGAT3 and/or TLR transcription were tested by qPCR in human monocyte cells treated with curcuminoids and compared the results to those treated with vehicle (Table 7). As discussed above, activation or up-regulation of macrophage MGAT3 or TLR's results in many functional outcomes, including the enhancement of […] and removal of Aβ, increased apoptosis, secretion of inflammatory cytokines, and other anti-AD antimicrobial activities. […] Thus, the ratio of MGAT3 or TLR transcription upon Aβ stimulation of human monocytes versus vehicle treatment provides an indicator and sensitive method to test the in vitro efficacy of drug candidates. […] The relative biological activity of the curcumin analogs in AD patient and control cells was ascertained in the in vitro Aβ assay described above (see Example 2).

[7] = system: TLR 2; assay: TLR 2 transcription ratio, AD patient / control PBMCs (qPCR); type: cell-based, human; conditions: Aβ stimulation
Experimental: as §1, §2

[8] = system: TLR 3; assay: TLR 3 transcription ratio, AD patient / control PBMCs (qPCR); type: cell-based, human; conditions: Aβ stimulation
Experimental: as §1, §2

[9] = system: TLR 4; assay: TLR 4 transcription ratio, AD patient / control PBMCs (qPCR); type: cell-based, human; conditions: Aβ stimulation
Experimental: as §1, §2

[10] = water (aqueous solution), pH 7.4, read-out: Chemical stability t1/2 pH 7.4 (converted)
[11] = water, H2O, read-out: Chemical stability t1/2 H2O (converted)

SMILES	pIC50 [1]	half-life ([3]; human) [min]	half-life [4] [min]	Relative ratio of MGAT3 transcription in AD patient / control PBMC's [6]	other results
O=C1/C(=C(O)/C=C/c2ccc(O)cc2)CCC/C1=C\c1ccc(O)cc1 [Compound 6, 2-(4-Hydroxybenzylidene)-6-(3-(4-hydroxyphenyl)acryloyl)cyclohexanone]	< 3.60	60.6	35.2	+++ ((+++ to ++++) indicates a ratio of 2.0 and above)	half-life [5, 10]: 436 min; half-life [5, 11]: 244 min
CC/C(C(=O)/C=C/c1ccc(N(C)C)cc1)=C(O)\C=C\c1ccc(N(C)C)cc1 [Compound 9, 1,7-bis(4-Dimethylaminophenyl)-4-ethyl-hepta-1,6-diene-3,5-dione]	4.26				
CC(=O)Oc1ccc(/C=C/C(=O)/C=C(O)/C=C/c2ccc(OC(C)=O)cc2)cc1 [Compound 17, Acetic acid 4-[7-(4-acetoxy-phenyl)-5-hydroxy-3-oxo-hepta-1,4,6-trienyl]-phenyl ester]				−	
CC(C)(C)C(=O)Oc1ccc(/C=C/C(=O)/C=C(O)/C=C/c2ccc(OC(=O)C(C)(C)C)cc2)cc1 [Compound 18, 2,2-Dimethyl-propionic acid 4-{7-[4-(2,2-dimethyl-propionyloxy)-phenyl]-3,5-dioxo-hepta-1,6-dienyl}-phenyl ester]				−	
O=C(/C=C(O)/C=C/c1cccc(O)c1)/C=C/c1cccc(O)c1 [Compound 19, 5-Hydroxy-1,7-bis-(3-hydroxyphenyl)-hepta-1,4,6-trien-3-one]		13.3	6.6	+ ((+) indicates a ratio of 1.0-1.5)	half-life [5, 10]: 66.2 min; half-life [5, 11]: 22.8 min
COc1ccc(/C=C/C(=O)/C=C(O)/C=C/c2ccc(OC)c(O)c2)cc1O [Compound 21, 5-Hydroxy-1,7-bis-(3-hydroxy-4-methoxyphenyl)-hepta-1,4,6-trien-3-one]		5	6.6	+ ((+) indicates a ratio of 1.0-1.5)	
O=C(/C=C(O)/C=C/c1ccc(O)c(Cl)c1)/C=C/c1ccc(O)c(Cl)c1 [Compound 24, 1,7-bis-(3-Chloro-4-hydroxyphenyl)-5-Hydroxy-hepta-1,4,6-trien-3-one]				−	
O=C(/C=C(O)/C=C/c1ccccc1)/C=C/c1ccccc1 [Compound 27, 5-Hydroxy-1,7-diphenylhepta-1,4,6-trien-3-one]				+ ((+) indicates a ratio of 1.0-1.5)	
Cc1ccc(/C=C/C(=O)/C=C(O)/C=C/c2ccc(C)cc2)cc1 [Compound 28, 5-Hydroxy-1,7-ditolylhepta-1,4,6-trien-3-one]				++ ((++) indicates a ratio of 1.5-2.0)	
CC(C)(C)c1ccc(/C=C/C(=O)/C=C(O)/C=C/c2ccc(C(C)(C)C)cc2)cc1 [Compound 30, 1,7-bis(4-tert-Butylphenyl)-5-hydroxyhepta-1,4,6-trien-3-one]	< 3.60			+ ((+) indicates a ratio of 1.0-1.5)	Relative ratio of TLR 2 transcription in AD patient / control PBMC's [7]: TLR 2 + ((+) indicates a ratio of 1.0-1.5); Relative ratio of TLR 3 transcription in AD patient / control PBMC's [8]: TLR 3 ++ ((++) indicates a ratio of 1.5-2.0); Relative ratio of TLR 4 transcription in AD patient / control PBMC's [9]: TLR 4 + ((+) indicates a ratio of 1.0-1.5)
COc1ccc(F)cc1/C=C/C(O)=C/C(=O)/C=C/c1ccc(N(C)C)cc1 [Compound 31]				++ ((++) indicates a ratio of 1.5-2.0)	Relative ratio of TLR 2 transcription in AD patient / control PBMC's [7]: TLR 2 ++ ((++) indicates a ratio of 1.5-2.0); Relative ratio of TLR 3 transcription in AD patient / control PBMC's [8]: TLR 3 ++ ((++) indicates a ratio of 1.5-2.0); Relative ratio of TLR 4 transcription in AD patient / control PBMC's [9]: TLR 4 ++ ((++) indicates a ratio of 1.5-2.0)
CC(C)C(N)C(=O)Oc1ccc(/C=C/C(=O)C2CCC/C(=C\c3ccc(OC(=O)C(N)C(C)C)cc3)C2=O)cc1 (centres unmarked) [Compound 37]	< 3.60		33.2	++ ((++) indicates a ratio of 1.5-2.0)	half-life ([3]; value given in h): > 60 min; half-life [5, 10]: < 16 min; half-life [5, 11]: 95.9 min

More lines, main results first:

pIC50 [1]	half-life ([3]; human) [min]	half-life [4] [min]	SMILES	Relative ratio of MGAT3 transcription in AD patient / control PBMC's [6]	other results
< 3.60			O=C(/C=C(\O)CCc1ccc(O)cc1)CCc1ccc(O)cc1 [Compound 5, 5-Hydroxy-1,7-bis(4-hydroxyphenyl)hept-4-en-3-one]		Avg. Solubility [2]: insol
< 3.60			COc1ccc(F)cc1/C=C/C(O)=C1\CCC/C(=C\c2cc(F)ccc2OC)C1=O [Compound 11]	+ ((+) indicates a ratio of 1.0-1.5)	
4.17			CC/C(C(=O)/C=C/c1ccc(N(C)C)cc1OC)=C(O)\C=C\c1ccc(N(C)C)cc1OC [Compound 13, 1,7-Bis(4-(dimethylamino)-2-methoxyphenyl)-4-ethyl-hepta-1,6-diene-3,5-dione]		
< 3.60			O=C1C(=Cc2ccc(O)cc2)COCC1=Cc1ccc(O)cc1 [Compound 15, 3,5-bis(4-Hydroxybenzylidene)dihydro-2H-pyran-4(3H)-one]		
	9	10.9	COc1ccc(/C=C/C(=O)/C=C(O)/C=C/c2ccc(OC)cc2)cc1 [Compound 16, 5-Hydroxy-1,7-bis-(4-methoxy-phenyl)-hepta-1,4,6-trien-3-one]	−	
	41.5	22.7	CN(C)c1ccc(/C=C/C(=O)/C=C(O)/C=C/c2ccc(N(C)C)cc2)cc1 [Compound 20, 1,7-bis-(4-Dimethylaminophenyl)-5-hydroxy-hepta-1,4,6-trien-3-one]	++++ ((+++ to ++++) indicates a ratio of 2.0 and above)	Chemical stability H2O (stable/unstable) ([5]; H2O): stable (stability half-lives greater than 5 hours); Chemical stability pH 7.4 (stable/unstable) ([5]; pH 7.4): stable (stability half-lives greater than 5 hours); solubility [2]: 0.23 µg/mL (≈ 0.635 µM)
	31.5	2.4	COc1cc(O)ccc1/C=C/C(=O)/C=C(O)/C=C/c1ccc(O)cc1OC [Compound 22, 5-Hydroxy-1,7-bis-(4-hydroxy-2-methoxyphenyl)-hepta-1,4,6-trien-3-one]	++ ((++) indicates a ratio of 1.5-2.0)	
	72.8	10.9	COc1ccccc1/C=C/C(=O)/C=C(O)/C=C/c1ccccc1OC [Compound 25, 5-Hydroxy-1,7-bis-(2-methoxyphenyl)-hepta-1,4,6-trien-3-one]	++++ ((+++ to ++++) indicates a ratio of 2.0 and above)	Relative ratio of TLR 2 transcription in AD patient / control PBMC's [7]: TLR 2 +++ ((+++ to ++++) indicates a ratio of 2.0 and above); Relative ratio of TLR 3 transcription in AD patient / control PBMC's [8]: TLR 3 ++ ((++) indicates a ratio of 1.5-2.0); Relative ratio of TLR 4 transcription in AD patient / control PBMC's [9]: TLR 4 + ((+) indicates a ratio of 1.0-1.5)
	97.1	75.4	CSc1ccc(/C=C/C(=O)/C=C(O)/C=C/c2ccc(SC)cc2)cc1 [Compound 29, 1,7-bis(4-Methylthiophenyl)-5-hydroxyhepta-1,4,6-trien-3-one]	++++ ((+++ to ++++) indicates a ratio of 2.0 and above)	
< 3.60	19.9	4.5	NCCCCC(N)C(=O)Oc1ccc(/C=C/C(=O)/C=C(O)/C=C/c2ccc(OC(=O)C(N)CCCCN)cc2)cc1 (centres unmarked) [Compound 34, 4,4′-(3,5-Dioxohepta-1,6-diene-1,7-diyl)bis(4,1-phenylene) bis(2,6-diaminohexanoate)]	++ ((++) indicates a ratio of 1.5-2.0)	Chemical stability pH 7.4 (stable/unstable) ([5]; pH 7.4): unstable^b (stability half-lives less than 5 minutes); half-life [5, 11]: 10.2 min; Relative ratio of TLR 2 transcription in AD patient / control PBMC's [7]: TLR 2 +++ ((+++ to ++++) indicates a ratio of 2.0 and above); Relative ratio of TLR 3 transcription in AD patient / control PBMC's [8]: TLR 3 ++ ((++) indicates a ratio of 1.5-2.0); Relative ratio of TLR 4 transcription in AD patient / control PBMC's [9]: TLR 4 + ((+) indicates a ratio of 1.0-1.5)
< 3.60		33.6	NCCCCC(N)C(=O)Oc1ccc(/C=C/C(=O)C2CCC/C(=C\c3ccc(OC(=O)C(N)CCCCN)cc3)C2=O)cc1 (centres unmarked) [Compound 38]	+ ((+) indicates a ratio of 1.0-1.5)	half-life ([3]; value given in h): > 60 min; Chemical stability H2O (stable/unstable) ([5]; H2O): unstable (stability half-lives less than 5 minutes); Chemical stability pH 7.4 (stable/unstable) ([5]; pH 7.4): unstable (stability half-lives less than 5 minutes)
